Reference: US8703812B2, “Protein synthesis required for long-term memory is induced by PKC activation on days preceding associative learning” (Blanchette Rockefeller Neurosciences Institute, priority 2005, dated 2014)

How the values were obtained:
Hermissenda Crassicornis = assay: Pavlovian conditioning of Hermissenda (retention of conditioned response); format: in vivo; settings: for effect on bryostatin memory enhancement: 6 TE with bryostatin; for effect on long-term retention: anisomycin 1 μg/ml for four hours post-training (2 TE) after three-day bryostatin treatment
Experimental: Bryostatin exposure—Specimens of Hermissenda Crassicornis were maintained in artificial sea water (ASW) at 15° for three days in perforated 50-ml conical centrifuge tubes before starting experiments. Bryostatin, purified from the marine bryozoan Bugula neritina, was dissolved in EtOH and diluted to its final concentration in ASW. […] For selected experiments lactacysteine (10 μM) or anisomycin was added to the ASW.
Bryostatin effects on Hermissenda behavior and biochemistry were produced by adding the drug to the bathing medium within an 8 cm long, 1 cm diameter test tube housing each individual animal.
Pavlovian conditioning of Hermissenda involves repeated pairings of a neutral stimulus, light, with an unconditioned stimulus, orbital shaking. (See, Lederhendler et al. (24) and Epstein et al. (6)). A rotation/shaking stimulus excites the statocyst hair cells and thereby elicits an unconditioned response: a brisk contraction of the muscular undersurface called a foot, accompanied by adherence or “clinging” to the surface that supports the foot. Before conditioning, light elicits a weakly positive phototaxis accompanied by lengthening of the foot. After sufficient light-rotation pairings, light no longer elicits phototaxis, but instead elicits a new response (24): the “clinging” and foot shortening previously elicited only by the unconditional stimulus (FIG. 1). Thus, the meaning of the unconditioned stimulus, rotation or orbital shaking, has been transferred to the conditioned stimulus and is manifested by a light-elicited foot contraction—a negative change of foot length. This conditioned response to light can last for weeks, is not produced by randomized light and rotation, is stimulus-specific, and shares the other defining characteristics of mammalian Pavlovian Conditioning.
Pavlovian conditioning of Hermissenda has well-defined training parameters that produce progressively longer-lasting retention of the learned conditioned response. Two training events (2 TE) of paired light and orbital shaking (see “Methods”), for example, induce a learned conditioned response (light-elicited foot contraction or shortening) that persists without drug treatment for approximately 7 minutes. Four to six training events (4-6 TE) induce a conditioned response that persists up to several hours, but disappears approximately by 1 day after training. Nine TE produces long-term associative memory lasting many days and often up to two weeks.

PKC-α = settings: 20 μM-5 QμM Lactacysteine; cited from earlier work
calexcitin = assay: Calexcitin immunostaining in B-photoreceptors; format: in vivo, Hermissenda
Experimental: Following experimental treatments and testing, animals were rapidly decapitated, the central nervous systems (CNS) removed and then fixed in 4% para-formaldehyde in 20 mM Tris-buffered (pH 8) natural seawater (NSW; 0.2 μm micropore-filtered). The CNSs were then embedded in polyester wax (20), sectioned (6 μm) and immunostained using a biotinylated secondary antibody coupled to avidin-bound microperoxidase (ABC method, Vector), Aminoethylcarbazole (AEC) was used as the chromogen. The primary polyclonal antibody (designated 25U2) was raised in rabbits from the full length calexcitin protein extracted from squid optic lobes. Gray-scale intensity measures were done from digital photomicrographs on circumscribed cytoplasmic areas of the B-photoreceptors minus the same background area (non-staining neuropile).

[1] = system: Rat hippocampal H19-7/IGF-IR cells; assay: Protein synthesis by [35S]Methionine incorporation; format: cell-based; settings: PKC inhibitor Ro-32 also present
Experimental: FIG. 17 depicts the effects of bryostatin on protein synthesis. Rat IGF-IR cells were incubated for 30 minutes with 0.28 nM bryostatin for incubation times ranging from 1 to 79 hours. [^35S]Methionine (9.1 μCi) was then added to the medium followed by analysis of radiolabel.
Rat hippocampal H19-7/IGF-IR cells (ATCC) were plated onto poly-L-lysine coated plates and grown at 35° in DMEM/10% FCS for several days until approx. 50% coverage was obtained. The cells were then induced to differentiate into a neuronal phenotype by replacing the medium with 5 ml N2 medium containing 10 ng/ml basic fibroblast growth factor and grown in T-25 flasks at 39° C. (26). Various concentrations of bryostatin (0.01-1.0 nM) were then added in 10 μl aqueous solution. After a specified interval, the medium was removed and the cells were washed with PBS, removed by gentle scraping, and collected by centrifugation at 1000 rpm for 5 min.
In fact, we found here that a single 30-minute exposure to 0.28 nM bryostatin increased overall protein synthesis (FIG. 17), measured by incorporation of ^35-S Methionine in the last ½ hour before collecting the neurons, by 20% within 24 h, increasing to 60% by 79 hours after the bryostatin exposure.

PKC = assay: Protein kinase C assay (histone phosphorylation) in Hermissenda nervous systems; format: in vivo; settings: anisomycin (1.0 ng/ml) with each bryostatin (0.25 ng/ml) exposure on three successive days
Experimental: Bryostatin exposure—Specimens of Hermissenda Crassicornis were maintained in artificial sea water (ASW) at 15° for three days in perforated 50-ml conical centrifuge tubes before starting experiments. Bryostatin, purified from the marine bryozoan Bugula neritina, was dissolved in EtOH and diluted to its final concentration in ASW. Animals were incubated with bryostatin in ASW for 4 hr, then rinsed with normal ASW. For selected experiments lactacysteine (10 μM) or anisomycin was added to the ASW.
Cells were homogenized by sonication (5 sec, 25 W) in 100 μl of 10 mM Tris-HCl pH 7.4 buffer containing 1 mM EGTA, 1 mM PMSF, and 50 mM NaF. Homogenate was transferred to a polyallomer centrifuge tube and was centrifuged at 100,000×g for 10 min at 4°. The supernatant was removed and immediately frozen on dry ice. The particulate fraction was resuspended by sonication in 100 μl of the same buffer and stored at −80°. To measure PKC, 10 μl of cytosol or particulate fraction was incubated for 15 min at 37° in the presence of 10 μM histones, 4.89 mM CaCl2, 1.2 μg/μl phosphatidyl-L-serine, 0.18 μg/μl 1,2-dioctanoyl-sn-glycerol, 10 mM MgCl2, 20 mM HEPES (pH 7.4), 0-8 mM EDTA, 4 mM EGTA, 4% glycerol, 8 μg/ml aprotinin, 8 μg/ml leupeptin, and 2 mM benzamidine. 0.5 μCi [γ^32P]ATP was added and ^32P-phosphoprotein formation was measured by adsorption onto phosphocellulose as described previously (25). This assay was used with slight adjustments for either Hermissenda nervous system homogenates or cultured mammalian neuron homogenates
Intact Hermissenda were exposed for 4 hour intervals to bryostatin (0.28 nM) on successive days under conditions described (“Behavioral Pharmacology”). Histone phosphorylation (See “Methods”) in isolated circumesophageal nervous systems was then measured in the cytosol fraction. […] (FIG. 12, 13). […] After an initial activation (via translocation), this bryostatin effect is most likely due to increased synthesis of PKC, consistent with the increased levels of calexcitin induced by bryostatin, but not directly correlated with repeated bryostatin exposure.

sAPP secretion = settings: cited from earlier work
[2] = system: diacylglycerol-protein kinase C activation; settings: aorta of diabetic rats; cultured rat smooth muscle cells, elevated glucose; cited from earlier work
[3] = vitamin E 2000 IU/day; cited from earlier work

## CC(=O)N[C@@H](CSC(=O)[C@]1([C@@H](O)C(C)C)NC(=O)[C@H](C)[C@@H]1O)C(=O)O [Lactacysteine]
Hermissenda Crassicornis; lactacysteine only 10 μM 4 h, 2-paired TEs 24 hrs later
  acquisition or retention of behavioral training: no acquisition or retention of behavioral training
Hermissenda Crassicornis; with lactacysteine
  duration of memory after single bryostatin exposure followed by 2 TE: many days
PKC-α
  degradation of PKC-α: largely prevented

## CN(C)C[C@H]1CCn2c(c(C3=C(c4cn(C)c5ccccc45)C(=O)NC3=O)c3ccccc32)C1 [Ro-32]
calexcitin; Ro-32
  effect on learning-specific calexcitin increases in Type B cell: prevented both learning and learning-specific calexcitin increases
[1]
  effect on bryostatin-induced increase of protein synthesis: partially blocked
[1]; listed as Ro-32-0432
  effect on bryostatin-induced increase of protein synthesis: increasing significantly less
Hermissenda Crassicornis
  effect on bryostatin memory enhancement: blocked
Hermissenda Crassicornis; Ro-32 applied pre-training (during dark adaptation)
  effect on 6 TE plus bryostatin conditioning: blocked
Hermissenda Crassicornis; Ro-32 during the training plus bryostatin
  effect on memory consolidation: did prevent memory consolidation
Hermissenda Crassicornis; Ro-32 immediately after bryostatin plus training
  effect on long-term memory induction: did not prevent long-term memory induction

## COc1ccc(C[C@H]2NC[C@H](O)[C@H]2OC(C)=O)cc1 [anisomycin]
calexcitin; anisomycin immediately after 2-paired TEs following 3 days of 4-hr bryostatin
  effect on calexcitin level: did not reduce this calexcitin level
Hermissenda Crassicornis
  effect on bryostatin memory enhancement: blocked
  effect on long-term retention: did not prevent memory retention
Hermissenda Crassicornis; 4 hour anisomycin treatment, no bryostatin
  effect on memory retention produced by 9 TE: eliminated all memory retention
Hermissenda Crassicornis; listed as Anisomycin
  effect on long-term retention: did not prevent long-term retention
Hermissenda Crassicornis; anisomycin 1.0 μg/ml immediately post-training, tested after 4 h
  effect on retention produced by single 4-hour bryostatin plus 2 TE: showed no CR
Hermissenda Crassicornis; anisomycin after training with and without bryostatin
  effect on memory formation: completely blocked memory formation
Hermissenda Crassicornis; anisomycin during training with and without bryostatin
  effect on long-term memory: did not prevent long-term memory
Hermissenda Crassicornis; anisomycin with each of three successive daily 4 hour bryostatin exposures, 2 TE one day after
  effect on long-term memory: long-term memory was eliminated
PKC
  effect on PKC activity, cytosolic and membrane fractions: markedly reduced the PKC activity

## CN[C@@H]1C[C@H]2O[C@@](C)([C@@H]1OC)n1c3ccccc3c3c4c(c5c6ccccc6n2c5c31)C(=O)NC4 [staurosporine]
sAPP secretion; control and AD fibroblasts
  effect on benzolactam-induced sAPP secretion: eliminated the effects of benzolactam

## benzolactam
sAPP secretion; benzolactam-treated cells
  sAPP secretion: enhance sAPP secretion over basal levels
sAPP secretion; control fibroblasts
  concentration giving significant increases of sAPP secretion: 10 µM

## vitamin E
[2]
  diacylglycerol-protein kinase C activation: normalize diacylglycerol-protein kinase C activation
[3]
  clinical outcome: reduced mortality and morbidity, but did not enhance cognitive abilities
